What was measured:
[1] = Measurement of perhydrolysis rate of formulated beads; details: 5 minutes, 10° C.
Protocol: To determine its perhydrolysis rate, the phenyl ester salt was formulated into beads. The beads were typically formulated using a powder or solid phenyl ester salt with a surfactant and a chelating agent. A typical formulation is shown below: […]
The dry materials were weighed, charged into a one-gallon sigma blade mixer and dry mixed for 1 minute. While mixing, water was added and mixing was continued for about 17.5 minutes. The wet mix bulk density was determined by measuring weight/volume. The material was extruded using the Luwa DG-L I at 90 rpm (using a 0.7 mm/I mm, 19.7% open area die). The extrusion was rounded for 1 minute at 1,350 rpm in the Luwa QJ-230 Marumerizer, followed by drying for 20 minutes at 115° C. in a Luwa MDB-400 fluid bed.
Perhydrolysis rate is the percentage of a phenyl ester salt that has undergone perhydrolysis in a specified period of time and at a specific temperature. For the purposes of these examples, perhydrolysis rate is measured at 5 and 30 minutes intervals at 10° C.
The perhydrolysis rate of a phenyl ester salt is measured by adding a weighed quantity of formulated beads comprising the phenyl ester salt, a reference detergent, and sodium […] monohydrate to a synthetic hard water solution in a chilled dissolution vessel (Sotax Model AT7, modified with a emersion chiller). The solution is maintained at 10° C. and stirred at 150 rpm. […]

[2] = Hydrolysis of phenyl ester salt in water at elevated temperature (water crystallization); type: physicochemical
Description: Phenyl ester salts may also be recrystallized from aqueous solutions. At first glance, the use of water (or an alcohol) as a solvent to replace acetic acid typically used for the purification of crude phenyl ester salts is not an obvious choice. Japanese Patent No. 6-306,042 (1995), for example, reports that compounds related to phenyl ester salts in water or alcohol are subject to hydrolysis or solvolysis at elevated temperatures. Indeed, initial work on water crystallization confirmed that phenyl ester salts, such as Compound (1), did undergo hydrolysis at elevated temperatures. Typical losses of Compound (1) were in the range of 5-7.5% at 90° C.

Hydrolysis ([2]; 90° C., operating at a pH range of 4-6): about 2.2%
Typical losses by hydrolysis ([2]; water crystallization at 90° C., pH not controlled): 5-7.5%
Substance: sodium nonanamidohexanoyloxybenzenesulfonate [Compound (1)]
Five minute perhydrolysis rate ([1]; beads prepared from crystallized Compound (1)): 20%
Five minute perhydrolysis rate ([1]; beads prepared from spray-dried Compound (1)): 100%

From patent US6527690B2, “Purification of phenyl ester salts” (priority 2000, dated 2003)
